From ChEMBL document CHEMBL4837230, “Thiophene-2-carboxamide derivatives of anthraquinone: A new potent antitumor chemotype” (Eur J Med Chem, 2021)
The source made the active and inactive calls. The rule behind the calls is not given here.

Columns and labels:
K562 [1] = assay: Induction of cell cycle arrest in human K562 cells assessed as increase in accumulation at sub-G1 phase at 2.5 uM after 4 hrs by flow cytometric analysis (reference value: 14%); format: functional
K562 [2] = assay: Induction of cell cycle arrest in human K562 cells assessed as increase in accumulation at G0/G1 phase at 2.5 uM after 6 hrs by flow cytometric analysis (reference value: 14.1%); format: functional
[3] = Cytotoxicity in human K562/4 cells assessed as reduction in cell viability incubated for 72 hrs by MTT assay; format: functional, cell-based; conditions: K562/4, 72 h
[4] = Drug localization in cytoplasm of mouse NIH3T3 cells at 1 uM incubated for 5 to 60 mins by laser confocal microscopy; format: ADME, cell-based; conditions: nih3t3, 1 µM, time 5-60 min
[5] = Cytotoxicity in human DND41 cells assessed as reduction in cell viability incubated for 72 hrs by MTT assay; format: functional, cell-based; conditions: DND41, 72 h
Calf thymus DNA = assay: Binding affinity to calf thymus double strand DNA incubated for 5 mins by spectrophotometry; format: nucleic-acid assay; conditions: Bos taurus
[6] = Drug localization in lysosome of mouse NIH3T3 cells at 1 uM incubated for 60 mins by lyso-tracker red based confocal microscopic method; format: ADME, cell-based; conditions: nih3t3, 1 h
K562 [7] = assay: Induction of apoptosis in human K562 cells assessed as viable cells after 24 hrs by Annexin V-APC/PI double staining based flow cytometric analysis (reference value: 91%); format: functional
K562 [8] = assay: Induction of cell cycle arrest in human K562 cells assessed as increase in accumulation at sub-G1 phase at 2.5 uM after 48 hrs by propidium iodide staining based flow cytometric analysis (reference value: 8.4%); format: functional
K562 [9] = assay: Induction of cell cycle arrest in human K562 cells assessed as increase in accumulation at sub-G1 phase at 5 uM after 24 hrs by propidium iodide staining based flow cytometric analysis (reference value: 8.4%); format: functional
K562 [10] = assay: Cytotoxicity in human K562 cells assessed as reduction in cell viability at 1 uM incubated with compound for 120 mins followed by cell washing and measured after 72 hrs by propidium iodide staining based flow cytometric analysis; format: functional; conditions: 2 h
[11] = Drug localization in lysosome of mouse NIH3T3 cells at 1 uM incubated for 5 mins by lyso-tracker red based confocal microscopic method; format: ADME, cell-based; conditions: nih3t3, 5 min
HeLa = assay: Cytotoxicity in human HeLa cells assessed as reduction in cell viability incubated for 72 hrs by MTT assay; format: functional, cell-based
K562 [12] = assay: Induction of apoptosis in human K562 cells assessed as activation of casapse-9 cleavage at 2.5 uM measured after 6 hrs by Western blot analysis; format: functional, cell-based
K562 [13] = assay: Induction of cell cycle arrest in human K562 cells assessed as increase in accumulation at sub-G1 phase at 2.5 uM after 24 hrs by propidium iodide staining based flow cytometric analysis (reference value: 8.4%); format: functional
[14] = Drug localization in mitochondria of mouse NIH3T3 cells at 1 uM measured after 60 mins by MitoTracker red based confocal microscopic method; format: ADME; conditions: nih3t3, 1 h
K562 [15] = assay: Cytotoxicity in human K562 cells assessed as reduction in cell viability at 2.5 uM incubated with compound for 60 mins followed by cell washing and measured after72 hrs by propidium iodide staining based flow cytometric analysis; format: functional; conditions: 1 h
[16] = target: T1, DNA topoisomerase 1 (Homo sapiens) (UniProt P11387); assay: Inhibition of topoisomerase 1 (unknown origin) assessed as relaxation of supercoiled plasmid pBR322 DNA at 1 to 5 uM incubated for 30 mins by electrophoresis; conditions: dose 1-5 µM
T1 sequence (whole entry): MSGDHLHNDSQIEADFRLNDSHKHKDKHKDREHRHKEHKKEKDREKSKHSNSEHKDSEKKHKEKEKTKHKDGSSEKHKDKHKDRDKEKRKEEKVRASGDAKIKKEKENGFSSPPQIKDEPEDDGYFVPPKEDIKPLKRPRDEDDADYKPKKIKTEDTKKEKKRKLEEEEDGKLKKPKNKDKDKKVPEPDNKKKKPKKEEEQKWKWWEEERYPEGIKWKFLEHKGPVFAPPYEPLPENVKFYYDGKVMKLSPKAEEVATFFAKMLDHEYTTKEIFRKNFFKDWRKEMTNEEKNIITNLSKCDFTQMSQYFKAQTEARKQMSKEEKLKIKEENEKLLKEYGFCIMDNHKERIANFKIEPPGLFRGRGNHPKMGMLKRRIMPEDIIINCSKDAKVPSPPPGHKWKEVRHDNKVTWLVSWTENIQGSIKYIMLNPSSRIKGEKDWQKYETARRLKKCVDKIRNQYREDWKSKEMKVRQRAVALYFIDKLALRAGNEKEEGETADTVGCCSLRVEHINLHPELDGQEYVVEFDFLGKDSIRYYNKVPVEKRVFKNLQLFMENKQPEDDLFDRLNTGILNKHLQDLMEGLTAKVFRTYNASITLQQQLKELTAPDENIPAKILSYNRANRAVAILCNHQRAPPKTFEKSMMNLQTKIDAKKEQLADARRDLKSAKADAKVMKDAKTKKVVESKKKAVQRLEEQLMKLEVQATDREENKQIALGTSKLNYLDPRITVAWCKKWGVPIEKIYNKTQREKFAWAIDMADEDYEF

K562 [17] = assay: Induction of apoptosis in human K562 cells assessed as viable cells after 3 hrs by Annexin V-[…]/PI double staining based flow cytometric analysis (reference value: 91%); format: functional
K562 [18] = assay: Induction of cell cycle arrest in human K562 cells assessed as increase in accumulation at S phase at 2.5 uM after 4 hrs by flow cytometric analysis (reference value: 47.1%); format: functional
K562 [19] = assay: Induction of cell cycle arrest in human K562 cells assessed as increase in accumulation at G2/M phase at 2.5 uM after 6 hrs by flow cytometric analysis (reference value: 26.8%); format: functional
K562 [20] = assay: Induction of cell cycle arrest in human K562 cells assessed as increase in accumulation at G0/G1 phase at 2.5 uM by flow cytometric analysis (reference value: 60.9%); format: functional
K562 [21] = assay: Induction of apoptosis in human K562 cells assessed as late apoptotic cells after 24 hrs by Annexin V-APC/PI double staining based flow cytometric analysis (reference value: 2.6%); format: functional
K562 [22] = assay: Induction of mitochondrial membrane potential loss in human K562 cells at 7.5 uM after 6 hrs by Mitotracker Red dye based flow cytometric analysis; format: functional, cell-based
K562 [23] = assay: Induction of apoptosis in human K562 cells assessed as activation of PARP cleavage at 2.5 uM measured after 6 hrs by Western blot analysis; format: functional, cell-based
K562 [24] = assay: Induction of cell cycle arrest in human K562 cells assessed as increase in accumulation at G2/M phase at 2.5 uM after 2 hrs by flow cytometric analysis (reference value: 15.2%); format: functional
K562 [25] = assay: Induction of cell cycle arrest in human K562 cells assessed as increase in accumulation at sub-G1 phase at 2.5 uM by flow cytometric analysis (reference value: 16.1%); format: functional
K562 [26] = assay: Cytotoxicity in human K562 cells assessed as reduction in cell viability at 2.5 uM incubated for 72 hrs by propidium iodide staining based flow cytometric analysis; format: functional
[27] = Drug localization in nuclei of mouse NIH3T3 cells at 1 uM incubated for 5 to 60 mins by Hoechst 33258 staining based laser confocal microscopy; format: ADME, cell-based; conditions: nih3t3, 1 µM, time 5-60 min

Drug uptake [4]: Active
Activity (Calf thymus DNA): inactive
Drug uptake [6]: Active
Drug uptake [11]: Active
Drug uptake [14]: Active
inhibition [16]: inactive
Drug uptake [27]: Not Active
Compound: N[C@H]1CCN(C(=O)c2cc3c(O)c4c(c(O)c3s2)C(=O)c2ccccc2C4=O)C1
Activity (K562 [1]): 14.5%
Activity (K562 [2]): 31.7%
IC50 [3]: 400 nM
IC50 [5]: 400 nM
Activity (K562 [7]): 1.8%
Activity (K562 [8]): 84.5%
Activity (K562 [9]): 78.4%
Activity (K562 [10]): 56.4%
IC50 (HeLa): 400 nM
Activity (K562 [12]): Active
Activity (K562 [13]): 76.7%
Activity (K562 [15]): 63.4%
Activity (K562 [17]): 47.9%
Activity (K562 [18]): 40.1%
Activity (K562 [19]): 13.9%
Activity (K562 [20]): 59.1%
Activity (K562 [21]): 49.3%
Activity (K562 [22]): inactive
Activity (K562 [23]): Active
Activity (K562 [24]): 15.9%
Activity (K562 [25]): 14.9%
Activity (K562 [26]): 94.8%
